Assay results taken from article PMC6609034, “Unraveling the role of the secretor antigen in human rotavirus attachment to histo-blood group antigens” (PLoS Pathogens, 2019).

What was measured:
VP8* P[4] = assay: ELISA-like binding assay to biotinylated HBGAs; parameters: species or system human rotavirus; settings: biotinylated PAA glycan 2 μg/ml, VP8* 10 μg/ml
Source text: (§1) A panel of biotinylated sugar antigens including Le^a, Le^b, Le^c (lacto-N-biose; LNB), H type-1, H type-2 and blood group A and B trisaccharides were purchased from Glyconz (Fig 1 and S1 Table). These glycans are biotinylated neoglyconjugates of a poly[N-(2-hydroxyethyl)acrylamide] (PAA) with a size from 30 to 50 KDa. This forms a flexible polymer ideal for a multivalent presentation of glycans. Immobilized streptavidin F96 black plates (Nunc) were coated with the biotinylated oligosaccharides (2 μg/ml) in milli-Q water and incubated during 1 hour at 37°C. After functionalization the plates were washed once with PBS containing 0.05% of Tween 20 (PBS-T) and the VP8* proteins were added (10 μg/ml) and incubated at 4°C overnight. After three washes with PBS-T, a rabbit polyclonal antibody anti GST (1:1,000) (Abcam) was added and the plates were incubated one hour at 37°C. Then, the plates were washed three times with PBS-T and incubated for 1 h at 37°C with 1:10,000 dilution of horseradish peroxidase (HRP)-conjugated goat anti-rabbit (Abcam). After three washes with PBS-T, the binding was detected using QuantaBlue reagent (ThermoFisher) kit, as recommended by the manufacturer. Fluorescence units were registered by a MultiScan microplate reader. All the binding assays were performed in triplicate.

VP8* P[6] = assay: ELISA-like binding assay to biotinylated HBGAs; parameters: species or system human rotavirus; settings: biotinylated PAA glycan 2 μg/ml, VP8* 10 μg/ml
Source text: as §1

P[8]c M4(Ile173Val) VP8* = target: T1, P[8]c M4(Ile173Val) VP8* (Rotavirus A, UniProt A0A0S0VKY7, I110V); assay: SPR apparent affinity of VP8* for immobilized HBGAs; type: binding, human rotavirus; settings: for Kd: PAA-biotin glycan immobilized on SA chip, VP8* as analyte, 10°C, ± standard deviation, read-out: Kda (apparent affinity constant)
T1 sequence (A0A0S0VKY7 1-161 I110V): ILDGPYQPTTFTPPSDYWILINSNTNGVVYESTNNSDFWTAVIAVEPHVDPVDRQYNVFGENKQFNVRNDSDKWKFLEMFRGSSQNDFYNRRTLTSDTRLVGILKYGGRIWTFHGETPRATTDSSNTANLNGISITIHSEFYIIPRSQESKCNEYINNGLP
Source text: Selected residues in the GST::VP8* P[8] were replaced for alanine or valine according to the structural data of the LNB binding site. Four mutants (M1–M4) were constructed using a Quick-Change site-directed mutagenesis kit (Stratagene) and appropriate oligonucleotides (S5 Table), and the DNA changes were confirmed by DNA sequencing. Mutant M1, M2 and M3 contained changes in the codons for tryptophan 174, arginine 209 and glutamic 212 residues, respectively, that introduced an alanine at each position. Mutant M4 substituted isoleucine 173 by valine.
The affinity assays were based on SPR and performed in a Biacore T100 instrument (GE Healthcare). H1 PAA-biotin and LNB PAA-biotin were diluted to a concentration of 1 mg/ml in water and captured with streptavidin present in a SA sensor chip (GE Healthcare). H1 was immobilized in channel 2 (630 RU) of the sensor chip and LNB was immobilized in channel 4 (624 RU). The channels 1 and 3 were used as the reference surfaces for channels 2 and 4, respectively. The immobilization process was performed by conditioning the sensor chip surface with three consecutive 1-minute injections of 1 M NaCl 50 mM NaOH before biotinylated ligands were immobilized at a flow rate of 15 μl/min. The affinity assays of VP8* polypeptides to biotinylated sugars were performed at 10°C using 1X HBS-EP^+ buffer (0.01 M HEPES pH 7.4, 0.15 M NaCl, 3 mM EDTA, 0.005% Surfactant P20), a flow rate of 5 μl/min with 2700 seconds of contact time and a dissociation time of 1800 seconds. The regeneration step consisted in a wash step with 10 mM Glycine-HCl pH 2 for 20 seconds at the same flow rate. The assays were performed with purified VP8* at different concentrations (45; 137; 411; 1,234; 3,703; 11,111; 33,333; 100,000 and 200,000 nM). Each run included three blanks without sample. […] Since multivalent oligosaccharides are immobilized on a sensor chip surface, avidity and rebinding effects can take place and apparent affinity constants (Kda) are calculated with this experimental setup. […]

[1] = target: VP8* from the lineage IV strain (P[8]LIV); assay: SPR interaction of VP8* with immobilized HBGAs; type: binding, human rotavirus
Procedure: (§2) The affinity assays were based on SPR and performed in a Biacore T100 instrument (GE Healthcare). H1 PAA-biotin and LNB PAA-biotin were diluted to a concentration of 1 mg/ml in water and captured with streptavidin present in a SA sensor chip (GE Healthcare). H1 was immobilized in channel 2 (630 RU) of the sensor chip and LNB was immobilized in channel 4 (624 RU). The channels 1 and 3 were used as the reference surfaces for channels 2 and 4, respectively. The immobilization process was performed by conditioning the sensor chip surface with three consecutive 1-minute injections of 1 M NaCl 50 mM NaOH before biotinylated ligands were immobilized at a flow rate of 15 μl/min. The affinity assays of VP8* polypeptides to biotinylated sugars were performed at 10°C using 1X HBS-EP^+ buffer (0.01 M HEPES pH 7.4, 0.15 M NaCl, 3 mM EDTA, 0.005% Surfactant P20), a flow rate of 5 μl/min with 2700 seconds of contact time and a dissociation time of 1800 seconds. The regeneration step consisted in a wash step with 10 mM Glycine-HCl pH 2 for 20 seconds at the same flow rate. The assays were performed with purified VP8* at different concentrations (45; 137; 411; 1,234; 3,703; 11,111; 33,333; 100,000 and 200,000 nM). Each run included three blanks without sample. The affinity data were obtained after analysis of sensorgrams performed with the BIAevaluation 2.0 software (GE Healthcare). Since multivalent oligosaccharides are immobilized on a sensor chip surface, avidity and rebinding effects can take place and apparent affinity constants (Kda) are calculated with this experimental setup. Kda values were obtained from the steady-state kinetics experiment as the ligand concentration needed to achieve a half-maximum binding at equilibrium. The experiments were made in triplicate. Graphical representation of signal/concentration curves were plotted using GraphPad Prism 6 for MacOsX.

[2] = target: VP8* from Rotarix strain (lineage I); assay: SPR interaction of VP8* with immobilized HBGAs; type: binding, human rotavirus
Procedure: as §2

[3] = target: T2, VP8* P[8]c (clinical isolate, lineage III) (Rotavirus A, UniProt A0A0S0VKY7); assay: SPR apparent affinity of VP8* for immobilized HBGAs; type: binding, human rotavirus; settings: PAA-biotin glycan immobilized on SA chip, VP8* as analyte, 10°C, ± standard deviation, read-out: Kda (apparent affinity constant)
T2 sequence (A0A0S0VKY7 1-161): T1 sequence (A0A0S0VKY7 1-161 I110V)
Procedure: as §2

VP8* P[8]Wa (lineage I) = target: T3, VP8* P[8]Wa (lineage I) (Rotavirus A, UniProt P11193); assay: as above; type: binding, human rotavirus; settings: PAA-biotin glycan immobilized on SA chip, VP8* as analyte, 10°C, ± standard deviation, read-out: Kda (apparent affinity constant)
T3 construct: amino acids 64–224 from the VP4 protein of rotavirus; GST (N); made in house; host or cells: E. coli BL21 (DE3)
T3 sequence (P11193 64-224): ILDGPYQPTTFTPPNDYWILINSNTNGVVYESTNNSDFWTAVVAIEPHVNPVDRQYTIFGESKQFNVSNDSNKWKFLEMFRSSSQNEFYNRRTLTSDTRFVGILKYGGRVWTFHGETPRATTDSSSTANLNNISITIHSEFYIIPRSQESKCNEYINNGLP
Procedure: as §2

SMILES | binding (ELISA-like) (VP8* P[4]) | binding (ELISA-like) (VP8* P[6]) | Kd (P[8]c M4(Ile173Val) VP8*) [µM] | Kda of VP8 I173V compared to the wild-type protein (P[8]c M4(Ile173Val) VP8*; higher than wild-type P[8]c) [fold] | interaction by SPR [1] | interaction by SPR [2] | Kd [3] [µM] | Kd (VP8* P[8]Wa (lineage I)) [µM]
CC(=O)NC1C(O)OC(CO)C(O)C1OC1OC(CO)C(O)C(O)C1OC1OC(C)C(O)C(O)C1O (stereo not drawn) [H1, Fuc-α1,2-Gal-β1,3-GlcNAc] | recognized | recognized | 39 | 1.4 | too low to be determined | too low to be determined | 27.9 | 80.2
CC(=O)NC1C(O)OC(CO)C(O)C1OC1OC(CO)C(O)C(O)C1O (stereo not drawn) [LNB, Gal-β1,3-GlcNAc] |  |  | 49.4 |  | too low to be determined | too low to be determined | 52.1 | 66.5
